Test system: healthy subjects
Experiment: Phase 1 study: Life Changes Inventory (LCI)
Type: in vivo, human
Text: In some embodiments, the Life Changes Inventory (LCI) questionnaire is utilized to evaluate the safety and/or efficacy of psilocybin. The LCI is designed as a questionnaire to investigate those variables present in the day-to-day experience of adults that might relate either to stability or decline of intellectual ability.
The following list of outcome measures are non-exhaustive: • a. The short-term change from Baseline (Day −1 [Visit 2]) to Day 7 (Visit 5) in cognitive measures of attention, spatial and working memory and executive function was measured by a composite score of the CANTAB Panel (Spatial Working Memory [SWM], Rapid Visual Information Processing [RVP], Paired Associates Learning [PAL]). • b. The short-term change from Baseline (Day −1 [Visit 2]) to Day 7 (Visit 5) in Social Cognition Panel scales (Pictorial Empathy Test [PET], Reading the Mind in the eyes Test [RMET], Toronto Empathy Questionnaire [TEQ], Social Value Orientation [SVO], Scale of Social Responsibility [SSR]). • c. The change from Baseline (Day −1 [Visit 2]) to Day 28 (Visit 6) in cognitive measures of attention, spatial and working memory and executive function as measured by a composite score of the CANTAB Panel (SWM, RVP, PAL). • d. The long-term change from Baseline (Day −1 [Visit 2]) to Day 84 (Visit 7) in Social Cognition Panel scales (PET, RMET, TEQ, SVO, SSR). • e. Dose-related differences between cognitive effects of psilocybin at Baseline (Day −1 [Visit 2]), Day 7 (Visit 5) and Day 28 (Visit 6), as measured by a composite score of the CANTAB Panel (SWM, RVP, PAL). • f. Dose-related differences between psychological effects of psilocybin at Baseline (Day −1 [Visit 2]), Day 7 (Visit 5) and Day 84 (Visit 7), as measured by Social Cognition Panel scales (PET, RMET, TEQ, SVO, SSR). • g. Differences in cognitive effects of psilocybin between psilocybin-naïve and experienced subjects at Baseline (Day −1 [Visit 2]), Day 7 (Visit 5) and Day 28 (Visit 6), as measured by a composite score of the CANTAB Panel (SWM, RVP, PAL). • h. Differences in Positive and Negative Affect Schedule (PANAS) after study drug administration on Day 0 (Visit 3). • i. Differences between psilocybin and placebo in the Emotion Recognition Test (ERT), Intra-Extra Dimensional Set Shift (IED), One Touch Stockings (OTS), Verbal Fluency and Digit Span Forward at Day 7 (Visit 5). • j. A composite score of the CANTAB Panel, including the following tests: • i. Spatial Working Memory (SWM) (performed at Visit 2, Visit 5, and Visit 6). • ii. Rapid Visual Information Processing (RVP) (performed at Visit 2, Visit 5, and Visit 6). • iii. Paired Associates Learning (PAL) (performed at Visit 2, Visit 5, and Visit 6). • k. Cognitive Flexibility Panel • i. Emotion Recognition Task (ERT) (performed at Visit 5). • ii. Intra-Extra Dimensional Set Shift (IED) (performed at Visit 5). • iii. One Touch Stockings (OTS) (performed at Visit 5). • iv. Verbal Fluency (performed at Visit 5). • v. Digit Span Forward (performed at Visit 5). • l. Five Dimension Altered States of Consciousness questionnaire (5D-ASC) (performed at Visit 3). • m. PANAS (performed at Visit 2 and Visit 3). • n. NEO-Five Factor Inventory (NEO-FFI) (performed at Visit 2, Visit 5, and Visit 7). • o. Symptom Checklist-90 item (SCL-90) (performed at Visit 2, Visit 5, and Visit 7). • p. Life Changes Inventory (LCI): The LCI measures changes in attitudes and values after near-death experiences often used to evaluate personal transformation following spiritually oriented experiences and practices. (performed at Visit 5 and Visit 7). • q. Social Cognition Panel scales • i. Pictorial Empathy Test (PET) (performed at Visit 2, Visit 5, and Visit 7). • ii. Reading the Mind in the Eyes Test (RMET) (performed at Visit 2, Visit 5, and Visit 7). • iii. Social Value Orientation (SVO) (performed at Visit 2, Visit 5, and Visit 7). • iv. Toronto Empathy Questionnaire (TEQ) (performed at Visit 2, Visit 5, and Visit 7). • v. […]

[1] = Psilocybin 10 mg - Placebo, Day 7
[2] = Psilocybin 10 mg - Placebo, Day 84
[3] = Psilocybin 25 mg - Placebo, Day 7
[4] = Psilocybin 25 mg - Placebo, Day 84
[5] = Psilocybin (25 mg - 10 mg), Day 7
[6] = Psilocybin (25 mg - 10 mg), Day 84

## CN(C)CCc1c[nH]c2cccc(OP(=O)(O)O)c12 [Psilocybin, psilocybin]
[1]
  LCI appreciation for life, LS mean difference: 0.6
  LCI appreciation of death, LS mean difference: 0.1
  LCI concern for others, LS mean difference: 0.4
  LCI concern for worldly achievement, LS mean difference: −0.2
  LCI concern social, LS mean difference: 0.1
  LCI quest for meaning, LS mean difference: 0.4
  LCI religiousness, LS mean difference: −0.1
  LCI self-acceptance, LS mean difference: 0.7
  LCI spirituality, LS mean difference: 0.3
  LCI-absolute change, LS mean difference: 0.4
[2]
  LCI appreciation for life, LS mean difference: 0.6
  LCI appreciation of death, LS mean difference: 0.2
  LCI concern for others, LS mean difference: 0.4
  LCI concern for worldly achievement, LS mean difference: −0.2
  LCI concern social, LS mean difference: 0.1
  LCI quest for meaning, LS mean difference: 0.4
  LCI religiousness, LS mean difference: −0.0
  LCI self-acceptance, LS mean difference: 0.5
  LCI spirituality, LS mean difference: 0.4
  LCI-absolute change, LS mean difference: 0.4
[3]
  LCI appreciation for life, LS mean difference: 0.5
  LCI appreciation of death, LS mean difference: 0.1
  LCI concern for others, LS mean difference: 0.4
  LCI concern for worldly achievement, LS mean difference: −0.1
  LCI concern social, LS mean difference: 0.2
  LCI quest for meaning, LS mean difference: 0.4
  LCI religiousness, LS mean difference: 0.0
  LCI self-acceptance, LS mean difference: 0.5
  LCI spirituality, LS mean difference: 0.2
  LCI-absolute change, LS mean difference: 0.3
[4]
  LCI appreciation for life, LS mean difference: 0.5
  LCI appreciation of death, LS mean difference: 0.2
  LCI concern for others, LS mean difference: 0.5
  LCI concern for worldly achievement, LS mean difference: −0.1
  LCI concern social, LS mean difference: 0.1
  LCI quest for meaning, LS mean difference: 0.4
  LCI religiousness, LS mean difference: 0.0
  LCI self-acceptance, LS mean difference: 0.5
  LCI spirituality, LS mean difference: 0.4
  LCI-absolute change, LS mean difference: 0.4
[5]
  LCI appreciation for life, LS mean difference: −0.2
  LCI appreciation of death, LS mean difference: −0.0
  LCI concern for others, LS mean difference: 0.0
  LCI concern for worldly achievement, LS mean difference: 0.1
  LCI concern social, LS mean difference: 0.1
  LCI quest for meaning, LS mean difference: 0.0
  LCI religiousness, LS mean difference: 0.1
  LCI self-acceptance, LS mean difference: −0.1
  LCI spirituality, LS mean difference: −0.1
  LCI-absolute change, LS mean difference: −0.1
[6]
  LCI appreciation for life, LS mean difference: −0.1
  LCI appreciation of death, LS mean difference: 0.0
  LCI concern for others, LS mean difference: 0.1
  LCI concern for worldly achievement, LS mean difference: 0.1
  LCI concern social, LS mean difference: 0.0
  LCI quest for meaning, LS mean difference: −0.0
  LCI religiousness, LS mean difference: 0.1
  LCI self-acceptance, LS mean difference: 0.0
  LCI spirituality, LS mean difference: −0.0
  LCI-absolute change, LS mean difference: −0.0

— patent US12377112B2, “Methods of treating neurocognitive disorders, chronic pain and reducing inflammation” (priority 2019, dated 2025)
